Columns and labels:
[1] = log P by HPLC on a reversed-phase column (C 18), EEC Directive 79/831 Annex V.A8; type: physicochemical
Excerpt: Called log P (HCOOH) in the table.
Called log P (neutral) in the table.

[2] = system: larvae of the mustard beetle (Phaedon cochleariae); assay: Phaedon cochleariae - spray test; type: in vivo; conditions: after 7 days
Protocol: Solvent: 78.0 parts by weight of acetone • • 1.5 parts by weight of dimethylformamide
Emulsifier: alkylaryl polyglycol ether
(§1) To produce a suitable active compound formulation, 1 part by weight of active compound is dissolved with the stated parts by weight of solvent and made up with water containing an emulsifier concentration of 1000 ppm until the desired concentration is attained. To produce further test concentrations, the formulation is diluted with emulsifier-containing water.
Discs of Chinese cabbage leaves (Brassica pekinensis) are sprayed with an active compound formulation of the desired concentration and, after drying, populated with larvae of the mustard beetle (Phaedon cochleariae).
After 7 days, the efficacy in % is determined. 100% means that all the beetle larvae have been killed and 0% means that none of the beetle larvae have been killed.

[3] = system: caterpillars of the armyworm (Spodoptera frugiperda); assay: Spodoptera frugiperda - spray test; type: in vivo; conditions: maize leaf discs, after 7 days
Protocol: Solvent: 78.0 parts by weight of acetone • • 1.5 parts by weight of dimethylformamide Emulsifier: alkylaryl polyglycol ether […] To produce further test concentrations, the formulation is diluted with emulsifier-containing water. Leaf discs of maize (Zea mays) are sprayed with an active compound preparation of the desired concentration and, after drying, populated with caterpillars of the armyworm (Spodoptera frugiperda).

[4] = system: green peach aphid (Myzus persicae); assay: Myzus persicae - spray test (Chinese cabbage leaf discs); type: in vivo; conditions: after 5 days
Protocol: Solvent: 78 parts by weight of acetone • • 1.5 parts by weight of dimethylformamide Emulsifier: alkylaryl polyglycol ether
as §1
Discs of Chinese cabbage leaves (Brassica pekinensis) infested by all stages of the green peach aphid (Myzus persicae) are sprayed with an active compound formulation of the desired concentration.
After 5 days, the efficacy in % is determined. 100% means that all the aphids have been killed and 0% means that none of the aphids have been killed.

[5] = system: L1 larvae of the Australian sheep blowfly (Lucilia cuprina); assay: Lucilia cuprina test; type: in vivo; conditions: application rate 100 ppm; after 2 days
Protocol: Solvent: dimethyl sulphoxide
To produce a suitable active compound formulation, 10 mg of active compound are mixed with 0.5 ml of dimethyl sulphoxide, and the concentrate is diluted with water to the desired concentration.
About 20 L1 larvae of the Australian sheep blowfly (Lucilia cuprina) are transferred into a test vessel containing minced horsemeat and the active compound formulation of the desired concentration.
After 2 days, the kill in % is determined. 100% means that all the larvae have been killed; 0% means that no larvae have been killed.

[6] = acidic range, pH 2.7, 0.1% aqueous formic acid/acetonitrile, 55° C.
[7] = neutral range, pH 7.8, 0.001 molar aqueous ammonium hydrogencarbonate/acetonitrile, 55° C.

| SMILES | LOGP_HCOOH (log P (HCOOH)) ([1]; pH 2.7) | efficacy ([3]; application rate 100 g/ha) [%] | LOGP_NEUTRAL (log P (neutral)) ([1]; pH 7.8) | also measured |
| --- | --- | --- | --- | --- |
| CCS(=O)(=O)c1ccc(-n2c(=O)[nH]c3cc(Cl)ccc32)nc1-c1nc2cc(C(F)(F)F)ncc2n1C [Example I-47] | 3.05 | – | – | – |
| CCS(=O)(=O)c1ccc(-n2nnc3ccc(Cl)cc32)nc1-c1nc2cc(C(F)(F)F)ncc2n1C [Example I-49] | – | 100 | – | LOGP_HCOOH (log P (HCOOH)) [1, 6]: 3.74; LOGP_NEUTRAL (log P (neutral)) [1, 7]: 3.74; efficacy ([2]; application rate 100 g/ha): 100% |
| CCS(=O)(=O)c1ccc(-n2ccc3ccc(Cl)cc32)nc1-c1nc2cc(C(F)(F)F)ncc2n1C [Example I-23] | 4.04 | – | 4.04 | efficacy ([4]; application rate 500 g/ha): 90% |
| CCS(=O)(=O)c1ccc(-n2nnc3cc(Cl)ccc32)nc1-c1nc2cc(C(F)(F)F)ncc2n1C [Example I-50] | – | 100 | – | LOGP_HCOOH (log P (HCOOH)) [1, 6]: 3.72; LOGP_NEUTRAL (log P (neutral)) [1, 7]: 3.77; efficacy ([2]; application rate 100 g/ha): 100% |
| CCS(=O)(=O)c1ccc(-n2c(=O)[nH]c3ccc(Cl)cc32)nc1-c1nc2cc(C(F)(F)F)ncc2n1C [Example I-48] | 2.97 | – | – | – |
| CCS(=O)(=O)c1ccc(-n2c(=O)[nH]c3ccccc32)nc1-c1nc2cc(C(F)(F)F)ncc2n1C [Example I-45] | 2.59 | – | 2.62 | – |
| CCS(=O)(=O)c1ccc(-n2cnc3ccc(OC)cc32)nc1-c1nc2cc(C(F)(F)F)ncc2n1C [Example I-30] | 2.69 | – | 2.67 | – |
| CCS(=O)(=O)c1ccc(-c2cccc3nn(C)cc23)nc1-c1nc2cc(C(F)(F)F)ncc2n1C [Example I-16] | 2.73 | – | 2.67 | efficacy ([2]; application rate 500 g/ha): 83% |
| CCS(=O)(=O)c1ccc(-n2cc3c(Cl)cc(C(F)(F)F)cn3c2=O)nc1-c1nc2cc(C(F)(F)F)ncc2n1C [Example I-12] | 4.27 | 100 | 4.18 | efficacy ([4]; application rate 100 g/ha): 90%; efficacy ([4]; application rate 500 g/ha): 90%; efficacy ([2]; application rate 100 g/ha): 100%; efficacy ([2]; application rate 500 g/ha): 100%; efficacy ([3]; application rate 500 g/ha): 100% |
| CCS(=O)(=O)c1ccc(-n2ccc3ncccc32)nc1-c1nc2cc(C(F)(F)F)ncc2n1C [Example I-20] | – | – | – | LOGP_HCOOH (log P (HCOOH)) [1, 6]: 1.75; LOGP_NEUTRAL (log P (neutral)) [1, 7]: 2.47 |
| CCS(=O)(=O)c1ccc(-c2cc3ccccc3n2C)nc1-c1nc2cc(C(F)(F)F)ncc2n1C [Example I-4] | 3.90 | – | 3.83 | efficacy (kill) [5]: 90% |
| CCS(=O)(=O)c1ccc(-n2ncc3cccc(Cl)c32)nc1-c1nc2cc(C(F)(F)F)ncc2n1C [Example I-8] | – | – | – | LOGP_HCOOH (log P (HCOOH)) [1, 6]: 3.44; LOGP_NEUTRAL (log P (neutral)) [1, 7]: 3.34 |
| CCS(=O)(=O)c1ccc(-c2ccc3cn(C)nc3c2)nc1-c1nc2cc(C(F)(F)F)ncc2n1C [Example I-14] | 2.71 | 100 | 2.65 | efficacy ([4]; application rate 500 g/ha): 70%; efficacy ([3]; application rate 500 g/ha): 100% |
| CCS(=O)(=O)c1ccc(-n2cnc3ccc(Cl)nc32)nc1-c1nc2cc(C(F)(F)F)ncc2n1C [Example I-33] | 3.25 | 100 | 3.20 | efficacy ([4]; application rate 500 g/ha): 90%; efficacy ([2]; application rate 100 g/ha): 100%; efficacy ([2]; application rate 500 g/ha): 100%; efficacy ([3]; application rate 500 g/ha): 100% |
| CC[S+]([O-])c1ccc(-n2cc3cccnc3n2)nc1-c1nc2cc(C(F)(F)F)ncc2n1C (stereo not shown) [Example I-13] | 2.46 | – | 2.45 | – |
